Laboratory results from US10117944B2, “Targeted therapeutics” (Madrigal Pharmaceuticals, Inc., priority 2014, dated 2018).
Where “and” joins values, the source holds several entries; their conditions need not be identical. Equal entries are not always repeated. Where two headings read alike, the source gives them in different places.

Key:
[1] = Stability of SDC-TRAPs in mouse plasma; assay type: in vitro ADME; conditions: 37° C.
Procedure: SDC-TRAPs were incubated in mouse plasma for 1 h at 37° C. and assayed for integrity at 0, 0.25, 0.5 and 1 h to assess the stability of the SDC-TRAP, e.g., as compared to the effector and targeting compounds. Compound stability was determined using […].

HER2 = HER2 degradation assay with BT-474 cell line; assay type: cell-based, human; conditions: BT-474 cells, overnight incubation
Procedure: BT-474 cells (human breast cancer cell line ATCC HTB-20) were obtained from ATCC and seeded into 12-well tissue culture plates at 0.2×10^6/1.8 mL/well. The cells were incubated for more than 6 hours at 37° C. in DMEM+10% FBS, +1% P/S, +1.5 g/L sodium bicarbonate. […] The DMSO final concentration was 0.2%. Cells were incubated overnight at 37° C. in 5% CO2.
Media was decanted from the plate, cells were washed 1× in PBS. 400 μL trypsin (EDTA) per well was added, and the cells were incubated for 2 to 3 minutes. Cells were collected into FACS tubes containing 1 ml culture medium to neutralize the trypsin and were centrifuged for 5 minutes at 1200 rpm. Supernatant was decanted and the cells were resuspended in 5 μL FITC (anti HER2/nu)/200 μL staining buffer (1×PBS+1% FBS+0.05% Sodium Azide)/tube. Controls were 5 μL IgG isotype control and staining buffer only. Tubes were incubated for 30 minutes in the dark at room temperature. 1 mL staining buffer was added to each tube and the tubes were centrifuged for 6 minutes at 1200 rpm. The supernatant was decanted and 300 μL staining buffer was added to each tube, which was stored at 4° C. for FACS (cytometer) analysis. The cytometer readout was normalized and the potency of each compound was evaluated with IC50 calculated with XLfit™ software.

[2] = Tissue distribution of ganetespib in female CD-1 nu/nu mice bearing RERF human NSCLC xenografts; assay type: in vivo; conditions: IV 50 mg/kg; for concentration at 5 min / concentration at 24 h / concentration at 6 h: female, CD-1 nu/nu, mouse
Description: To confirm the distribution of ganetespib in blood, livers, kidneys, brains, hearts, lungs and tumors after IV administration of ganetespib to female CD-1 nu/nu mice bearing RERF human NSCLC xenografts, and to examine metabolic profiles of ganetespib in plasma, red blood cells, and above tissues.
Test Articles: ganetespib
Animals: female CD-1 nu/nu mice bearing RERF human NSCLC xenografts (N=3/group)
Formulation: 10% DMSO, 18% Cremophor RH40, 3.6% dextrose solution (DRD)
Bleeding time points: 5 min, 6, 24 hr
Collected tissues: blood (plasma and red blood cells (RBC)), liver, kidneys, brain, heart, lung, tumor
Protein precipitation: 50 μL of 10 times diluted plasma or RBC+150 μL ACN (10 mM NH4OAc), vortexed and centrifuged at 10000 rpm for 8 min; 150 μL supernatant+150 μL water (10 mM NH4OAc)
Protein precipitation: 100 μL homogenized tissue (1:3 tissue: PBS buffer)+100 μL ACN (10 mM NH4OAc), vortexed and centrifuged at 10000 rpm for 8 min

For CC(C)C[C@H](NC(=O)[C@H](Cc1ccccc1)NC(=O)c1cnccn1)B1OC(C)(C)C(C)(c2ccc(C(=O)N3CCN(Cc4ccc(-n5c(O)nnc5-c5cc(C(C)C)c(O)cc5O)cc4)CC3)cc2)O1 (stereo partly drawn) [SDC-TRAP-0236, N-((2S)-1-(((1R)-1-(4-(4-(4-(4-(3-(2,4-dihydroxy-5-isopropylphenyl)-5-hydroxy-4H-1,2,4-triazol-4-yl)benzyl)piperazine-1-carbonyl)phenyl)-4,5,5-trimethyl-1,3,2-dioxaborolan-2-yl)-3-methylbutyl)amino)-1-oxo-3-phenylpropan-2-yl)pyrazine-2-carboxamide], the “% Remaining (1 h)” value [1] was 25.5% and the IC50 (HER2) was 0.71 µM.
In the case of CC(C)C[C@H](NC(=O)[C@H](Cc1ccccc1)NC(=O)c1cnccn1)B1OC(C)(C)C(C)(c2ccc(C(=O)N3CCC(CCn4ccc5cc(-n6c(O)nnc6-c6cc(C(C)C)c(O)cc6O)ccc54)CC3)cc2)O1 (stereo partly drawn) [SDC-TRAP-0237, N-((2S)-1-(((1R)-1-(4-(4-(4-(2-(5-(3-(2,4-dihydroxy-5-isopropylphenyl)-5-hydroxy-4H-1,2,4-triazol-4-yl)-1H-indol-1-yl)ethyl)piperidine-1-carbonyl)phenyl)-4,5,5-trimethyl-1,3,2-dioxaborolan-2-yl)-3-methylbutyl)amino)-1-oxo-3-phenylpropan-2-yl)pyrazine-2-carboxamide], the “% Remaining (1 h)” value [1] is reported as 84.2% and the IC50 (HER2) is reported as greater than 5 µM.
In the case of CC(C)C[C@H](NC(=O)[C@H](Cc1ccccc1)NC(=O)c1cnccn1)B1OC(C)(C)C(C)(c2ccc(C(=O)N3CCN(c4ccc(-n5c(O)nnc5-c5cc(C(C)C)c(O)cc5O)cc4)CC3)cc2)O1 (stereo partly drawn) [SDC-TRAP-0238, N-((2S)-1-(((1R)-1-(4-(4-(4-(4-(3-(2,4-dihydroxy-5-isopropylphenyl)-5-hydroxy-4H-1,2,4-triazol-4-yl)phenyl)piperazine-1-carbonyl)phenyl)-4,5,5-trimethyl-1,3,2-dioxaborolan-2-yl)-3-methylbutyl)amino)-1-oxo-3-phenylpropan-2-yl)pyrazine-2-carboxamide], the “% Remaining (1 h)” value [1] is reported as 24.0% and the IC50 (HER2) is reported as greater than 5 µM.
In the case of CC(C)C[C@H](NC(=O)[C@H](Cc1ccccc1)NC(=O)c1cnccn1)B1OC(C)(C)C(C)(c2ccc(C(=O)N3CCc4ccc(-n5c(O)nnc5-c5cc(C(C)C)c(O)cc5O)cc4C3)cc2)O1 (stereo partly drawn) [SDC-TRAP-0239, N-((2S)-1-(((1R)-1-(4-(4-(7-(3-(2,4-dihydroxy-5-isopropylphenyl)-5-hydroxy-4H-1,2,4-triazol-4-yl)-1,2,3,4-tetrahydroisoquinoline-2-carbonyl)phenyl)-4,5,5-trimethyl-1,3,2-dioxaborolan-2-yl)-3-methylbutyl)amino)-1-oxo-3-phenylpropan-2-yl)pyrazine-2-carboxamide], the “% Remaining (1 h)” value [1] is reported as 35.8% and the IC50 (HER2) is reported as greater than 5 µM.
With CCNC(=O)c1nnc(-c2cc(C(C)C)c(O)cc2O)n1-c1ccc2c(ccn2CCC2CCN(C(=O)c3ccc(C4(C)OB([C@H](CC(C)C)NC(=O)[C@H](Cc5ccccc5)NC(=O)c5cnccn5)OC4(C)C)cc3)CC2)c1 (stereo partly drawn) [SDC-TRAP-0240, N-((2S)-1-(((1R)-1-(4-(4-(4-(2-(5-(3-(2,4-dihydroxy-5-isopropylphenyl)-5-(ethylcarbamoyl)-4H-1,2,4-triazol-4-yl)-1H-indol-1-yl)ethyl)piperidine-1-carbonyl)phenyl)-4,5,5-trimethyl-1,3,2-dioxaborolan-2-yl)-3-methylbutyl)amino)-1-oxo-3-phenylpropan-2-yl)pyrazine-2-carboxamide] the “% Remaining (1 h)” value [1] was 84.0% and the IC50 (HER2) was greater than 5 µM.
In the case of CC(C)C[C@H](NC(=O)[C@H](Cc1ccccc1)NC(=O)c1cnccn1)B1OC(C)(C)C(C)(c2ccc(C(=O)N3CCC(COc4ccc(-n5c(O)nnc5-c5cc(C(C)C)c(O)cc5O)cc4)CC3)cc2)O1 (stereo partly drawn) [SDC-TRAP-0242, N-((2S)-1-(((1R)-1-(4-(4-(4-((4-(3-(2,4-dihydroxy-5-isopropylphenyl)-5-hydroxy-4H-1,2,4-triazol-4-yl)phenoxy)methyl)piperidine-1-carbonyl)phenyl)-4,5,5-trimethyl-1,3,2-dioxaborolan-2-yl)-3-methylbutyl)amino)-1-oxo-3-phenylpropan-2-yl)pyrazine-2-carboxamide], the IC50 (HER2) is reported as 0.407 µM.
In the case of CC(C)C[C@H](NC(=O)[C@H](Cc1ccccc1)NC(=O)c1cnccn1)B1O[C@H]2C[C@H]3C[C@H](C3(C)C)[C@@]2(CC(=O)N2CCC(CCn3ccc4cc(-n5c(O)nnc5-c5cc(C(C)C)c(O)cc5O)ccc43)CC2)O1 [SDC-TRAP-0245, N—((S)-1-(((R)-1-((3aR,4R,6R,7aS)-3a-(2-(4-(2-(5-(3-(2,4-dihydroxy-5-isopropylphenyl)-5-hydroxy-4H-1,2,4-triazol-4-yl)-1H-indol-1-yl)ethyl)piperidin-1-yl)-2-oxoethyl)-5,5-dimethylhexahydro-4,6-methanobenzo[d][1,3,2]dioxaborol-2-yl)-3-methylbutyl)amino)-1-oxo-3-phenylpropan-2-yl)pyrazine-2-carboxamide], the “% Remaining (1 h)” value [1] is reported as 44.2%.
For CCNC(=O)c1nnc(-c2cc(C(C)C)c(O)cc2O)n1-c1ccc(CN2CCC(C(=O)N3CCC4(CC3)OB([C@H](CC(C)C)NC(=O)[C@H](Cc3ccccc3)NC(=O)c3cnccn3)OC4(C)C)CC2)cc1 [SDC-TRAP-0252, N—((S)-1-(((R)-1-(8-(1-(4-(3-(2,4-dihydroxy-5-isopropylphenyl)-5-(ethylcarbamoyl)-4H-1,2,4-triazol-4-yl)benzyl)piperidine-4-carbonyl)-4,4-dimethyl-1,3-dioxa-8-aza-2-boraspiro[4.5]decan-2-yl)-3-methylbutyl)amino)-1-oxo-3-phenylpropan-2-yl)pyrazine-2-carboxamide], the “% Remaining (1 h)” value [1] was 34%.
For CC(C)c1cc(-c2n[nH]c(=O)n2-c2ccc3c(ccn3C)c2)c(O)cc1O [ganetespib], the “Mean concentration in plasma relative to that in RBC” value ([2]; 5 min) was “about 10 times”, the Concentration in tumor ([2]; 5 min, tumor) was 2350 nM and the Concentration in plasma ([2]; 24 hr, plasma) was “<LLOQ”. For the same molecule, the concentration at 5 min ([2]; red blood cells, 5 min, RBC, read-out: Concentration in RBC) was 6000 ng/mL and 16.5 µM, the concentration at 24 h ([2]; red blood cells, 24 hr, RBC, read-out: Concentration in RBC) was 3 ng/mL and 7 nM and the concentration at 5 min ([2]; 5 min, brain, read-out: Concentration in brain) was 530 nM and 190 ng/g. The concentration at 5 min ([2]; 5 min, heart, read-out: Concentration in heart) was 36.2 µM and 13200 ng/g, the concentration at 5 min ([2]; 5 min, kidneys, read-out: Concentration in kidneys) was 57.8 µM and 21100 ng/g and the concentration at 5 min ([2]; 5 min, liver, read-out: Concentration in liver) was 46.3 µM and 16900 ng/g. The concentration at 5 min ([2]; 5 min, lung, read-out: Concentration in lung) was 9240 ng/g and 25.4 µM, the concentration at 5 min ([2]; 5 min, plasma, read-out: Concentration in plasma) was 160 µM and 58400 ng/mL and the concentration at 5 min ([2]; 5 min, tumor, read-out: Concentration in tumor) was 860 ng/g and 2.35 µM. The concentration at 6 h ([2]; brain, read-out: Concentration in brain) was 70 ng/g and 180 nM, the concentration at 6 h ([2]; heart, read-out: Concentration in heart) was 50 ng/g and 130 nM and the concentration at 6 h ([2]; kidneys, read-out: Concentration in kidneys) was 60 ng/g and 150 nM. For the same molecule, the concentration at 6 h ([2]; liver, read-out: Concentration in liver) was 140 ng/g and 390 nM, the concentration at 6 h ([2]; lung, read-out: Concentration in lung) was 50 ng/g and 140 nM and the concentration at 6 h ([2]; plasma, read-out: Concentration in plasma) was 120 nM and 40 ng/mL. For the same molecule, the concentration at 6 h ([2]; tumor, read-out: Concentration in tumor) was 290 ng/g and 800 nM, the concentration at 24 h ([2]; 24 hr, brain, read-out: Concentration in brain) was 40 ng/g and 120 nM and the concentration at 24 h ([2]; 24 hr, heart, read-out: Concentration in heart) was 0 ng/g and 0 nM. The concentration at 24 h ([2]; 24 hr, kidneys, read-out: Concentration in kidneys) was 10 ng/g and 20 nM, the concentration at 24 h ([2]; 24 hr, liver, read-out: Concentration in liver) was 5 ng/g and 10 nM and the concentration at 24 h ([2]; 24 hr, lung, read-out: Concentration in lung) was 0 ng/g and 5 nM. For the same molecule, the concentration at 24 h ([2]; 24 hr, plasma, read-out: Plasma concentration (below the lower limit of quantitation)) was less than 2.5 nM and the concentration at 24 h ([2]; 24 hr, tumor, read-out: Concentration in tumor) was 850 nM and 310 ng/g.
